These results are taken from US9266834B2, “1, 4-disubstituted 3-cyano-pyridone derivatives and their use as positive allosteric modulators of MGLUR2-receptors” (JANSSEN PHARMACEUTICALS, INC., priority 2006, dated 2016).

T1 sequence (Q14416 19-872): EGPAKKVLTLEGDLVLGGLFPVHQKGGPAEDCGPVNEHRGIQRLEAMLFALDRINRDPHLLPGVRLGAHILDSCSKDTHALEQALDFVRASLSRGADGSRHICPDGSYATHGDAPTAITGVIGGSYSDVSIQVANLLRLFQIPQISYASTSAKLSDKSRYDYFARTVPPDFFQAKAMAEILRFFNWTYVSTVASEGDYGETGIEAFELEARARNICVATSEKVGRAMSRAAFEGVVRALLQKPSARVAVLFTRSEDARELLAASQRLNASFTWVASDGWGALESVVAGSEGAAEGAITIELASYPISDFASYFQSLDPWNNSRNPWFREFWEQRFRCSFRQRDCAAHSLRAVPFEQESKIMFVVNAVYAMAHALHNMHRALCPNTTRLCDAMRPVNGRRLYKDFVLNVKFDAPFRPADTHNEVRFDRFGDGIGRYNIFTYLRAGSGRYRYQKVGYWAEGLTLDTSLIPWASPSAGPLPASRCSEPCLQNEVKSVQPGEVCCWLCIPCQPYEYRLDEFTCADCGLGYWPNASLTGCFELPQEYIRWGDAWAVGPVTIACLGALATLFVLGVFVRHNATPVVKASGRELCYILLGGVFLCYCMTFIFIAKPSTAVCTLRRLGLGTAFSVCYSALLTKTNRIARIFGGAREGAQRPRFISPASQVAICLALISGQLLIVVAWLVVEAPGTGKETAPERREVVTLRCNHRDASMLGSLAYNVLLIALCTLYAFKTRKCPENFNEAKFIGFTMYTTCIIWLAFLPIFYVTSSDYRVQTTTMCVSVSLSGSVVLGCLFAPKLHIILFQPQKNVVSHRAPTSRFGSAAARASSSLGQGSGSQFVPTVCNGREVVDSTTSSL

The experiment concerns the target T1, human mGluR2 receptor (Homo sapiens, UniProt Q14416).
T1 construct: expressed in transfected cells; host or cells: CHO cells (membrane preparation)
In words: [35S]GTPγS binding assay (GTPγS-PAM): positive allosteric modulation in presence of glutamate at EC25, membranes from transfected CHO cells. The class given is biochemical. Particulars: in presence of mGluR2 agonist glutamate at predetermined EC25 concentration, averages of duplicate values of 11-concentration response curves, read-out: GTPgS - hR2 PAM pEC50 (converted). The source says:
The compounds provided in the present invention are positive allosteric modulators of mGluR2. These compounds appear to potentiate glutamate responses by binding to an allosteric site other than the glutamate binding site. The response of mGluR2 to a concentration of glutamate is increased when compounds of Formula (I) are present. Compounds of Formula (I) are expected to have their effect substantially at mGluR2 by virtue of their ability to enhance the function of the receptor. The behaviour of positive allosteric modulators tested at mGluR2 using the [^35S]GTPγS binding assay method described below and which is suitable for the identification of such compounds, and more particularly the compounds according to Formula (I), are shown in Table 4.
[^35S]GTPγS Binding Assay
The [^35S]GTPγS binding is a functional membrane-based assay used to study G-protein coupled receptor (GPCR) function whereby incorporation of a non-hydrolysable form of GTP, [^35S]GTPγS (guanosine 5′-triphosphate, labelled with […] ^35S), is measured. The G-protein o subunit catalyzes the exchange of guanosine 5′-diphosphate (GDP) by guanosine triphosphate (GTP) and on activation of the GPCR by an agonist, [^35S]GTPγS, becomes incorporated and cannot be cleaved to continue the exchange cycle (Harper (1998) Current Protocols in Pharmacology 2.6.1-10, John Wiley & Sons, Inc.). […] Here we describe the use of the [^35S]GTPγS binding assay using membranes from cells transfected with the human mGluR2 receptor and adapted from Schaffhauser et al ((2003) Molecular Pharmacology 4:798-810) for the detection of the positive allosteric modulation (PAM) properties of the compounds of this invention.
CHO-cells were cultured to pre-confluence and stimulated with 5 mM butyrate for 24 hours, prior to washing in PBS, and then collection by scraping in homogenisation buffer (50 mM Tris-HCl buffer, pH 7.4, 4° C.). Cell lysates were homogenized briefly (15 s) using an ultra-turrax homogenizer. The homogenate was centrifuged at 23 500×g for 10 minutes and the supernatant discarded. The pellet was resuspended in 5 mM Tris-HCl, pH 7.4 and centrifuged again (30 000×g, 20 min, 4° C.). The final pellet was resuspended in 50 mM HEPES, pH 7.4 and stored at −80° C. in appropriate aliquots before use. Protein concentration was determined by the Bradford method (Bio-Rad, USA) with bovine serum albumin as standard.
Measurement of mGluR2 positive allosteric modulators in membranes containing human mGluR2 was performed using frozen membranes that were thawed and briefly homogenised prior to pre-incubation in 96-well microplates (15 μg/assay well, 30 minutes, 30° C.) in assay buffer (50 mM HEPES pH 7.4, 100 mM NaCl, 3 mM MgCl2, 50 μM GDP, 10 μg/ml saponin,) with increasing concentrations of positive allosteric modulator (from 0.3 nM to 50 μM) and either a minimal pre-determined concentration of glutamate (PAM assay), or no added glutamate. For the PAM assay, membranes were pre-incubated with glutamate at EC25 concentration, i.e. a concentration that gives 25% of the maximal response glutamate, and is in accordance to published data (Pin et al. (1999) Eur. J. Pharmacol. 375:277-294). After addition of [^35S]GTPγS (0.1 nM, f.c.) to achieve a total reaction volume of 200 μl, microplates were shaken briefly and further incubated to allow [^35S]GTPγS incorporation on activation (30 minutes, 30° C.). The reaction was stopped by rapid vacuum filtration over glass-fibre filter plates (Unifilter 96-well GF/B filter plates, Perkin-Elmer, Downers Grove, USA) microplate using a 96-well plate cell harvester (Filtermate, Perkin-Elmer, USA), and then by washing three times with 300 μl of ice-cold wash buffer (Na2PO4.2H2O 10 mM, NaH2PO4.H2O 10 mM, pH=7.4). Filters were then air-dried, and 40 μl of liquid scintillation cocktail (Microscint-O) was added to each well, and membrane-bound [^35S]GTPγS was measured in a 96-well scintillation plate reader (Top-Count, Perkin-Elmer, USA). […]
In general terms: Binding of GTPγS marks nucleotide exchange on a G protein.
As to `CC(C)CCn1ccc(-c2ccc(COc3ccncc3)cc2)c(C#N)c1=O` [1-160], the EC50 was 631 nM.
With `CC(C)CCn1ccc(-c2ccc(Oc3ccncc3)cc2F)c(C#N)c1=O` [1-161], the EC50 is 631 nM.
Under `CC(C)CCn1ccc(-c2ccc(OCc3ccncc3)c(Cl)c2)c(C#N)c1=O` [1-165] stands 79.4 nM; under `COc1cc(-c2ccn(CCC(C)C)c(=O)c2C#N)ccc1OCc1cccnc1` [1-166], 1580 nM; under `COc1cc(-c2ccn(CCC(C)C)c(=O)c2C#N)ccc1OCc1ccncc1` [1-167], 501 nM.
In the case of `CC(C)CCn1ccc(-c2ccc(OCc3nnc[nH]3)cc2)c(C#N)c1=O` [1-168], the EC50 is 6310 nM.
As for `CC(C)CCn1ccc(-c2ccc(N)cc2)c(C#N)c1=O` [1-170], the EC50 is 794 nM.
Next, `COCCNc1ccc(-c2ccn(CCC(C)C)c(=O)c2C#N)cc1` [1-174]: 1580 nM; `CC(=O)CCNc1ccc(-c2ccn(CCC(C)C)c(=O)c2C#N)cc1` [1-180]: 316 nM.
With `CC(=O)NCCNc1ccc(-c2ccn(CCC(C)C)c(=O)c2C#N)cc1` [1-182], the EC50 is 3160 nM.
Take `COc1cc(-c2ccn(CCC(C)C)c(=O)c2C#N)ccc1NC(C)C` [1-183]: the EC50 is 251 nM.
In the case of `COc1cc(-c2ccn(CCC(C)C)c(=O)c2C#N)ccc1CNC(C)=O` [1-184], the EC50 is 3980 nM.
Turning to `COCCN(C)c1ccc(-c2ccn(CCC(C)C)c(=O)c2C#N)cc1OC` [1-185], the EC50 was 1000 nM.
Next, `CC(C)CCn1ccc(-c2ccc(NC3CC3)cc2)c(C#N)c1=O` [1-187]: 126 nM; `CC(C)CCn1ccc(-c2ccc(NC3CCCCC3)cc2)c(C#N)c1=O` [1-188]: 50.1 nM.
As to `CC(C)CCn1ccc(-c2ccc(Nc3ccccc3)cc2)c(C#N)c1=O` [1-193], the EC50 was 5010 nM.
Under `CC(C)CCn1ccc(-c2ccc(NCc3ccccc3)cc2)c(C#N)c1=O` [1-194] stands 63.1 nM; under `CC(C)CCn1ccc(-c2ccc(N(C)c3ccccc3)cc2)c(C#N)c1=O` [1-195], 126 nM; under `CC(C)CCn1ccc(-c2ccc(N(C)Cc3ccccc3)cc2)c(C#N)c1=O` [1-196], 39.8 nM.
Next, `CC(C)CCn1ccc(-c2ccc(CN(C)Cc3ccc(F)cc3)cc2)c(C#N)c1=O` [1-197]: 251 nM.
In the case of `CC(C)CCn1ccc(-c2ccc(CNCc3ccccc3F)cc2)c(C#N)c1=O` [1-198], the EC50 was 1260 nM.
Next, `CC(=O)Nc1ccc(-c2ccn(CCC(C)C)c(=O)c2C#N)cc1F` [1-201]: 3980 nM; `CC(C)CCn1ccc(-c2ccc(NCc3ccc(OC(F)(F)F)cc3)cc2)c(C#N)c1=O` [1-205]: 251 nM.
Consider `CC(C)CCn1ccc(-c2ccc(Nc3ccncc3)cc2)c(C#N)c1=O` [1-208], for which the EC50 is 1260 nM.
Next, `CC(C)CCn1ccc(-c2ccc(NCc3cccnc3)cc2)c(C#N)c1=O` [1-209]: 1260 nM; `Cc1ccc(-c2ccn(CCC(C)C)c(=O)c2C#N)cc1[N+](=O)[O-]` [1-214]: 794 nM; `CC(C)CCn1ccc(-c2ccc(NC3CCS(=O)(=O)CC3)cc2)c(C#N)c1=O` [1-217]: 2510 nM.
In the case of `CC(C)CCn1ccc(-c2ccc(N3CCCC3)cc2)c(C#N)c1=O` [1-218], the EC50 was 200 nM.
Next, `CC(C)CCn1ccc(-c2ccc(N3CCCCC3)cc2)c(C#N)c1=O` [1-219]: 200 nM; `COC1CCN(c2ccc(-c3ccn(CCC(C)C)c(=O)c3C#N)cc2)CC1` [1-221]: 398 nM.
Under `CC(=O)N1CCN(c2ccc(-c3ccn(CCC(C)C)c(=O)c3C#N)cc2)CC1` [1-231] stands 1580 nM; under `CC(C)CCn1ccc(-c2ccc(N3CCN(c4ccccc4)CC3)cc2)c(C#N)c1=O` [1-233], 631 nM.
On to `CC(C)CCn1ccc(-c2ccc(N3CCN(c4ccncc4)CC3)cc2)c(C#N)c1=O` [1-234], for which the EC50 is 1260 nM.
Turning to `CC(C)CCn1ccc(-c2ccc(-n3ccnn3)cc2)c(C#N)c1=O` [1-236], the EC50 was 2000 nM.
Next, `CC(C)CCn1ccc(-c2ccc(N3Cc4ccccc4C3)cc2)c(C#N)c1=O` [1-237]: 398 nM.
Next, `COC(=O)c1cccc(-c2ccn(CCC(C)C)c(=O)c2C#N)c1` [1-242]: 3980 nM; `CC(C)CCn1ccc(-c2ccc(C3(C(N)=O)CC3)cc2)c(C#N)c1=O` [1-246]: 3980 nM; `CC(C)CCn1ccc(-c2ccc(Cn3ccnc3)cc2)c(C#N)c1=O` [1-248]: 3160 nM.
On to `CC(C)CCn1ccc(-c2ccc(N3CCCC3=O)cc2)c(C#N)c1=O` [1-249], for which the EC50 is 3980 nM.
On to `CC(C)CCn1ccc(-c2ccc(-c3cnco3)cc2)c(C#N)c1=O` [1-250], for which the EC50 was 1580 nM.
For the molecule `CC(C)CCn1ccc(-c2ccc3c(c2)OCCO3)c(C#N)c1=O` [1-253], the EC50 was 501 nM.
For `CC(C)CCn1ccc(-c2ccc(CSc3ccncc3)cc2)c(C#N)c1=O` [1-258], the EC50 is 316 nM.
Next, `CC(C)CCn1ccc(-c2ccc3sccc3c2)c(C#N)c1=O` [1-259]: 200 nM; `CC(C)CCn1ccc(CCc2ccccc2)c(C#N)c1=O` [1-260]: 1260 nM; `CC(C)CCn1ccc(C=Cc2ccccc2)c(C#N)c1=O` [1-261]: 200 nM.
Next, `CC(C)CCn1ccc(CCc2cccc(N(C)C)c2)c(C#N)c1=O` [1-262]: 1580 nM; `CC(C)CCn1ccc(CCc2ccc(N(C)C)cc2)c(C#N)c1=O` [1-263]: 1000 nM.
Turning to `COc1cccc(CCc2ccn(CCC(C)C)c(=O)c2C#N)c1` [1-264], the EC50 is 1580 nM.
Next, `COc1ccc(C=Cc2ccn(CCC(C)C)c(=O)c2C#N)cc1` [1-266]: 316 nM.
Turning to `CC(C)CCn1ccc(C#Cc2ccccc2)c(C#N)c1=O` [1-267, 3-cyano-1-(3-methylbutyl)-4-(phenylethynyl)pyridine-2(1H)-one], the EC50 is 79.4 nM.
Under `COc1ccc(C#Cc2ccn(CCC(C)C)c(=O)c2C#N)cc1` [1-268] stands 50.1 nM.
With `CC(C)CCn1ccc(C#Cc2cccc(N(C)C)c2)c(C#N)c1=O` [1-269], the EC50 is 158 nM.
Next, `N#Cc1c(OCc2ccc(CN3CCOCC3)cc2)ccn(Cc2ccc(OC(F)(F)F)cc2)c1=O` [1-271]: 158 nM; `N#Cc1c(OCc2ccccc2)ccn(Cc2ccc(OC(F)(F)F)cc2)c1=O` [1-272]: 126 nM; `CCCCn1ccc(Oc2ccc(Br)cc2)c(C#N)c1=O` [1-273]: 631 nM.
In the case of `CC(C)CCn1ccc(Oc2ccccc2)c(C#N)c1=O` [1-274], the EC50 was 1580 nM.
Regarding `CC(C)CCn1ccc(OCCc2ccccc2)c(C#N)c1=O` [1-276], the EC50 was 2510 nM.
As to `CC(C)CCn1ccc(OCc2ccc(C(F)(F)F)cc2)c(C#N)c1=O` [1-277], the EC50 is 251 nM.
Next, `CC(C)CCn1ccc(OCc2ccc(Br)cc2)c(C#N)c1=O` [1-278]: 316 nM.
Under `CC(C)CCn1ccc(OCCOc2ccccc2)c(C#N)c1=O` [1-280] stands 1580 nM; under `COc1ccc(COc2ccn(CCC(C)C)c(=O)c2C#N)cc1F` [1-283], 794 nM; under `CC(C)CCn1ccc(OCc2ccc(C#N)cc2)c(C#N)c1=O` [1-286], 3980 nM.
